Measured values reported in US20130195870A1, “ERBB3 Mutations In Cancer” (Genentech, Inc., priority 2011, published 2013).
Entries after “also recorded” stand apart in the source; their conditions may differ.

Key:
[1] = tested on: BaF3 cells stably expressing ERBB3 mutants together with ERBB2; experiment: Survival and proliferation assay, IL-3 independent BaF3 cells; assay type: cell-based, mouse; conditions: for blocking oncogenic signaling by ERBB3 mutants: summary statement
Procedure: BaF3 cells stably expressing the wild-type and mutant ERBB3 alone or together with EGFR or ERBB2, were washed twice in PBS and plated in 3×96-well plates in replicates of eight in complete RPMI medium without IL3. As needed cells were then treated with different concentration of NRG1 and anti-NRG1 antibody or different ERBB antibodies, tyrosine kinase or PI3K small molecule inhibitors to test their effects on survival or cell proliferation, where relevant as depicted in the figures. Viable cells at 0 h and 120 h were determined using Cell Titer-Glo luminescence cell viability kit (Promega Corp., WI) and Synergy 2 (Biotek Instrument, CA) luminescence plate reader. All the cell number values were normalized against Oh values. In order to assess proliferation of MCF10A stably expressing ERBB3-WT or mutants were washed twice in PBS and 5000 cells plated in 96-well plates in replicates of eight in triplicates serum-free media and allowed to proliferate for 5 days. Cell numbers were measure at day 0 and day 5 using the luminescence cell viability kit. […] Mean and statistical significance was determined using GraphPad V software (GraphPad, CA).

[2] = tested on: BaF3 cells stably expressing ERBB3 mutants together with ERBB2; experiment: Colony formation assay (anchorage-independent growth), BaF3 cells; assay type: cell-based, mouse
Procedure: BaF3 cells stably expressing EGFR (2×10^5) or ERBB2 (50,000) along with ERBB3 wild-type or mutants, was mixed with 2 mls of IL3-free Methylcellulose ([…] Technologies, Canada) and plated on to 6 well plates and when indicated, cells were treated with different ERBB antibodies or tyrosine kinase or PI3K small molecule inhibitors before plating. Plates were then incubated at 37° C. for 2 weeks. For MCF10A colony formation, 20,000 MCF10A cells stably expressing ERBB3-WT or mutants alone or in combination with EGFR or ERBB2 were mixed with 0.35% agar in DMEM: F12 lacking serum, EGF, and NRG1 and plated on 0.5% base agar. Plates were then incubated at 37° C. for 3 weeks. The presence of colonies was assessed using Gel count imager (Oxford Optronix Ltd, UK). The number of colonies in each plate was quantified using Gel count software (Oxford Optronix Ltd, UK).

[3] = Q809R kinase domain ERBB3 mutant, at the tested dose
[4] = all the mutants tested except Q809R
[5] = all the ERBB3 mutants tested, co-expressed with ERBB2, no IL-3

Molecule | blocking cell proliferation ([1]; ERBB3 ECD mutants) | blocking cell proliferation [1, 3] | blocking cell proliferation [1, 4] | blocking oncogenic signaling by ERBB3 mutants ([1]; in vitro and in vivo, majority/most of the ERBB3 mutants tested) | blocking oncogenic signaling by ERBB3 mutants ([1]; kinase domain mutant Q809R) | blocking colony formation ([2]; ERBB3 ECD mutants) | blocking colony formation [2, 3] | blocking colony formation [2, 4] | blocking cell proliferation [1, 5] | blocking colony formation [2, 5]
CS(=O)(=O)N1CCN(Cc2cc3nc(-c4cccc5[nH]ncc45)nc(N4CCOCC4)c3s2)CC1 [GDC-0941] | very effective | only partially effective; also recorded: only modestly effective | effective | quite active | not as effective; also recorded: reduced efficacy | very effective | only partially effective; also recorded: only modestly effective | effective | – | –
CS(=O)(=O)CCNCc1ccc(-c2ccc3ncnc(Nc4ccc(OCc5cccc(F)c5)c(Cl)c4)c3c2)o1 [lapatinib] | – | – | – | – | – | – | – | – | quite effective | quite effective
MEHD7945A: a dual ERBB3/EGFR antibody that blocks ligand binding (binds domain III of EGFR and ERBB3) (antibody, V domains shown) VH: EVQLVESGGGLVQPGGSLRLSCAASGFTLSGDWIHWVRQAPGKGLEWVGEISAAGGYTDYADSVKGRFTISADTSKNTAYLQMNSLRAEDTAVYYCARESRVSFEAAMDYWGQGTLVTVSS VL: DIQMTQSPSSLSASVGDRVTITCRASQNIATDVAWYQQKPGKAPKLLIYSASFLYSGVPSRFSGSGSGTDFTLTISSLQPEDFATYYCQQSEPEPYTFGQGTKVEIKR | – | – | – | – | – | – | – | – | – | effective
